Assay results: US7691844B2, “Nonpeptide substituted spirobenzoazepines as vasopressin antagonists” (Ortho-McNeil Pharmaceutical, Inc., priority 2000, dated 2010)

Experiments:
V1b = biological target: T1, V1b (Homo sapiens, UniProt P47901); experiment: In-vitro receptor binding assay (3H-arginine-8-vasopressin), V1b
T1 sequence (P47901 1-424): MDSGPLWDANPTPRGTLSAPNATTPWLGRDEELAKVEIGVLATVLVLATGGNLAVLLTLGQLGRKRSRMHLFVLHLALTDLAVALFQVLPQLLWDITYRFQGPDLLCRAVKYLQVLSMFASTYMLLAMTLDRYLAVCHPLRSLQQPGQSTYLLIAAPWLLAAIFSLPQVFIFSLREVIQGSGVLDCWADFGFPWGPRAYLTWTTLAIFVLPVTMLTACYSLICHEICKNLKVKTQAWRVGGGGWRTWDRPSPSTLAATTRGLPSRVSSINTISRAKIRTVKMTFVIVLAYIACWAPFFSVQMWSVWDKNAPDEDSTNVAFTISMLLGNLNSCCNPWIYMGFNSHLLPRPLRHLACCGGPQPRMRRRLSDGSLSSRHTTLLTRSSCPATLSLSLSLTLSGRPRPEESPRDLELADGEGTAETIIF
Method: (A) In-Vitro Binding Assay […] The reaction plates are allowed to sit at room temperature for one hour. The samples are filtered through Unifilter GF/C plates (presoaked in 0.3 polyethyleneimine). The plates are washed 5 times with cold physiological saline containing 0.05% Tween 20. After drying, the bottom of the filter plates are sealed and 0.025 ml of Microscint-20 is added to each filter. The top of the plate is sealed, and the plate is counted. Non-specific binding is determined by the addition of 1.25 μM […]-vasopressin in those wells. % Inh. is calculated as follows: […]

V1a [1] = biological target: T2, V1a (Homo sapiens, UniProt P37288); experiment: V1a vasopressin receptor functional activity (inhibition of vasopressin-induced intracellular calcium, FLIPR, V1a-HEK cells); format: cell-based; design: expressed in transfected cells; settings: HEK-293 cells transfected with human V1a receptor; vasopressin challenge
T2 sequence (P37288 whole entry): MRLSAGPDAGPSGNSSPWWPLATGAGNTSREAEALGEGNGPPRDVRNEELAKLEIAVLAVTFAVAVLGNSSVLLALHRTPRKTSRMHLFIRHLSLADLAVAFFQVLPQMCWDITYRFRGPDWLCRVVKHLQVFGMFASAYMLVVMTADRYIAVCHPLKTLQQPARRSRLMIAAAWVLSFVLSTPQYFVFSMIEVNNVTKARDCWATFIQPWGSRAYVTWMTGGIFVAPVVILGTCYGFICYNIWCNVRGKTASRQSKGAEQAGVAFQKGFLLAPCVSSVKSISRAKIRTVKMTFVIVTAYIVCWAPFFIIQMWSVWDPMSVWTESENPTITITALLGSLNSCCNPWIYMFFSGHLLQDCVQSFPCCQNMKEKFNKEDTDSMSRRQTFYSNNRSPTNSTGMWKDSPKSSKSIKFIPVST
Method: [formula] (B) V1a Vasopressin Receptor Functional Activity
The V1a receptor is a G-protein coupled receptor, which upon activation triggers an increase in intracellular calcium mobilization. To evaluate compounds for their functional V1a receptor activity, HEK-293 cells were transfected with the human V1a receptor (V1a-HEK cells). HEK-293 cells were grown in DMEM (Dulbecco's modified Eagle Media) supplemented with 10% FBS and glutamine. HEK-cells were passed biweekly by trypsinization and seeded into 96 well plates at 33,000 cells per well. HEK-293 cells were transfected with human V1a receptor DNA using DMRIE-C reagent from Life Technologies. Stable lines were generated by selecting cells grown in culture media containing geneticin. After growing in Packard Clear-View black 96 well plates for 4-6 days, V1a-HEK cells were loaded with the calcium-sensitive fluorescence dye, FLUO-3 AM. Changes in cell fluorescence were quantitated using FLIPR (Fluorometric Imaging Plate Reader; Molecular Devices, Sunnyvale, Calif.). Test compounds were first added to the cells and the resulting changes in fluorescence measured to detect receptor agonistic activity. Five minutes later the cells were challenged with vasopressin to test compounds for their antagonistic activity. Receptor antagonists inhibit the ability of vasopressin to stimulate increases in intracellular fluorescence. IC50's were calculated.

human V2 receptor = human V2 receptor (Homo sapiens, UniProt P30518); experiment: In-vitro receptor binding assay (3H-arginine-8-vasopressin), V2
How it was run: (§1)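 Radioligand is 3H-arginine-8-vasopressin, incubated with receptor for one hour at room temperature, then filtered on GF/C plates and counted by scintillation. Non-specific binding was defined with 1.25 μM vasopressin, and results are given as % inhibition.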

V1a [2] = biological target: T2, V1a; experiment: In-vitro receptor binding assay (3H-arginine-8-vasopressin), V1a
How it was run: as §1

[3] = @ 10 μM, read-out: Receptor Binding V1b (% Inh. @ concentration in μM)
[4] = @ 0.1 μM, read-out: Receptor Binding V2 (% Inh. @ concentration in μM)

| Compound | IC50 (V1a [1]) [µM] | IC50 (human V2 receptor) [µM] | IC50 (V1a [2]) [µM] | other results |
| --- | --- | --- | --- | --- |
| CN(C)CCNC(=O)C1=CC2(CC1)CCN(C(=O)c1ccc(NC(=O)c3ccccc3-c3ccccc3)cc1)c1ccccc1C2 (single isomer, unassigned) [Compound 21] | 0.008 | 0.44 | 0.181 | inhibition at 10 µM (V1b; [3]): 7% |
| O=C(Nc1ccc(C(=O)N2CCC3(C=C(CO)CC3)Cc3ccccc32)cc1)c1ccccc1-c1ccccc1 (centres unmarked) [Compound 1, 4-(2-Phenylbenzoyl-4-aminobenzoyl)-3′-(hydroxymethyl)-4-aza-[6,4]-spiro-[5,6]-benzoundec-2′-ene] | < 0.01 | 0.018 | 0.009 |  |
| CNCC1=CC2(CC1)CCN(C(=O)c1ccc(NC(=O)c3ccccc3-c3ccccc3)cc1)c1ccccc1C2 (centres unmarked) [Compound 3, 4-(2-Phenylbenzoyl-4-aminobenzoyl)-3′-(methylaminomethyl)-4-aza-[6,4]-spiro-[5,6]-benzoundec-2′-ene] | < 0.01 | 0.018 | 0.009 |  |
| O=C(O)C1=CC2(CC1)CCN(C(=O)c1ccc(NC(=O)c3ccccc3-c3ccccc3)cc1)c1ccccc1C2 (centres unmarked) [Compound 4, 4-(2-Phenylbenzoyl-4-aminobenzoyl)-3′ (carboxyl)-4-aza-[6,4]-spiro-[5,6]-benzoundec-2′-ene] | 0.02 | 0.014 | 0.037 |  |
| CC(=O)N(C)CC1=CC2(CC1)CCN(C(=O)c1ccc(NC(=O)c3ccccc3-c3ccccc3)cc1)c1ccccc1C2 (centres unmarked) [Compound 5, 4-(2-Phenylbenzoyl-4-aminobenzoyl)-3′-(N-methyl-N-acetylaminomethyl)-4-aza-[6,4]-spiro-[5,6]-benzoundec-2′-ene] | < 0.01 | 0.022 | 0.02 |  |
| O=C(NCCO)C1=CC2(CC1)CCN(C(=O)c1ccc(NC(=O)c3ccccc3-c3ccccc3)cc1)c1ccccc1C2 (centres unmarked) [Compound 6] | 0.005 | 0.011 | 0.006 |  |
| O=C(NCCO)C1=CC2(CC1)CCN(C(=O)c1ccc(NC(=O)c3ccccc3F)cc1)c1ccccc1C2 (centres unmarked) [Compound 8] | 0.099 |  | 0.004 | inhibition at 0.1 µM (V1b; @ 0.1 μM, read-out: Receptor Binding V1b (% Inh. @ concentration in μM)): 41% |
| CN(C)CCNC(=O)C1=CC2(CC1)CCN(C(=O)c1ccc(NC(=O)c3ccccc3-c3ccccc3)cc1)c1ccccc1C2 (centres unmarked) [Compound 9, 4-(2-Phenylbenzoyl-4-aminobenzoyl)-3′-[2-(N,N-dimethylaminoethylcarbonyl)]-4-aza-[6,4]-spiro-[5,6]-benzoundec-2′-ene] | 0.004 | 0.011 | 0.005 | inhibition at 10 µM (V1b; [3]): 12% |
| Cc1ccc(F)cc1C(=O)Nc1ccc(C(=O)N2CCC3(C=C(C(=O)NCCN(C)C)CC3)Cc3ccccc32)cc1 (centres unmarked) [Compound 13] | 0.07 | 0.018 | 0.005 |  |
| Cc1ccc(F)cc1C(=O)Nc1ccc(C(=O)N2CCC3(C=C(C(=O)NCCCN(C)C)CC3)Cc3ccccc32)cc1 (centres unmarked) [Compound 14] | 0.059 | 0.023 | 0.005 |  |
| COC(=O)CNCC1=CC2(CC1)CCN(C(=O)c1ccc(NC(=O)c3cc(F)ccc3C)cc1)c1ccccc1C2 (centres unmarked) [Compound 15] | 0.135 | 0.1 | 0.007 |  |
| CN(C)CCNC(=O)C1=CC2(CC1)CCN(C(=O)c1ccc(NC(=O)c3ccccc3F)cc1)c1ccccc1C2 (centres unmarked) [Compound 16, 4-(2-Fluorobenzoyl-4-aminobenzoyl)-3′-[2-(N,N-dimethylaminoethylcarbonyl)]-4-aza-[6,4]-spiro-[5,6]-benzoundec-2′-ene] | 0.126 |  | 0.008 | inhibition at 10 µM (V1b; [3]): 8%; inhibition at 0.1 µM (human V2 receptor; [4]): 17% |
| O=C(NCCN1CCOCC1)C1=CC2(CC1)CCN(C(=O)c1ccc(NC(=O)c3ccccc3F)cc1)c1ccccc1C2 (centres unmarked) [Compound 17] | 0.227 |  | 0.014 | inhibition at 0.1 µM (human V2 receptor; [4]): 18% |
| O=C(NCCN1CCCCC1)C1=CC2(CC1)CCN(C(=O)c1ccc(NC(=O)c3ccccc3F)cc1)c1ccccc1C2 (centres unmarked) [Compound 18] | 0.95 |  | 0.007 | inhibition at 0.1 µM (human V2 receptor; [4]): 23% |
| O=C(NCCN1CCCC1)C1=CC2(CC1)CCN(C(=O)c1ccc(NC(=O)c3ccccc3F)cc1)c1ccccc1C2 (centres unmarked) [Compound 19] | 0.155 |  | 0.008 | Receptor Binding V1b (% Inh. @ concentration in μM) (V1b; @ 0.1 μM): 22% @ 0.1 |
| CCNc1ccc(C(=O)N2CCC3(CCCCC3)Cc3ccccc32)cc1 [Compound 26] | 0.105 | 10 | 0.16 |  |
| O=C(Nc1ccccc1)c1ccc(C(=O)N2CCCC3(C=CCCC3)c3ccccc32)cc1 (centres unmarked) [Compound 27] | 0.008 | 0.27 | 0.1 |  |
| N#Cc1ccc(C(=O)N2CCC3(C=CCCC3)Cc3ccccc32)cc1 (centres unmarked) [Compound 33] | > 1 |  | 0.13 |  |
| COc1ccc(C(=O)N2CCC3(C=CCCC3)Cc3ccccc32)cc1 (centres unmarked) [Compound 37] | 0.096 |  | 0.11 | Receptor Binding V2 (% Inh. @ concentration in μM) (human V2 receptor; @ 10 μM): 37% @ 10 |
| O=C(c1ccc(Cl)c(Cl)c1)N1CCC2(C=CCCC2)Cc2ccccc21 (centres unmarked) [Compound 48] | > 1 |  |  | inhibition at 10 µM (human V2 receptor; @ 10 μM, read-out: Receptor Binding V2 (% Inh. @ concentration in μM)): 16%; inhibition at 10 µM (V1a [2]; @ 10 μM, read-out: Receptor Binding V1a (% Inh. @ concentration in μM)): 33% |
| CCCCOc1ccc(C(=O)N2CCC3(C=CCCC3)Cc3ccccc32)cc1 (centres unmarked) [Compound 53] | 0.104 | 8 | 0.06 |  |
| COC(=O)c1ccc(C(=O)N2CCC3(C=CCCC3)Cc3ccccc32)cc1 (centres unmarked) [Compound 54, 4-(4-Carbomethoxybenzoyl)-4-aza-[6,5]-spiro-[5,6]-benzododec-2′-ene] | 0.067 | 10 | 0.33 |  |
| O=C(Nc1ccc(C(=O)N2CCC3(C=CCCC3)Cc3ccccc32)cc1)c1ccccc1-c1ccccc1 (centres unmarked) [Compound 66, 4-(2-Phenylbenzoyl-4-aminobenzoyl)-4-aza-[6,5]-spiro-[5,6]-benzododec-2′-ene] | 0.025 | 0.19 | 0.83 |  |
| Cc1ccccc1C(=O)Nc1ccc(C(=O)N2CCC3(C=CCCC3)Cc3ccccc32)cc1 (centres unmarked) [Compound 69] | 0.14 | 0.07 | 0.01 |  |
| Cc1cc(F)ccc1C(=O)Nc1ccc(C(=O)N2CCC3(C=CCCC3)Cc3ccccc32)cc1 (centres unmarked) [Compound 99] | 0.08 |  | 0.041 | inhibition at 1 µM (human V2 receptor; @ 1 μM, read-out: Receptor Binding V2 (% Inh. @ concentration in μM)): 35% |
| Cc1cc(F)ccc1C(=O)Nc1ccc(C(=O)N2CCC3(C=CCCC3)Cc3ccccc32)cc1 (centres unmarked) [Compound 100] | 0.05 | 0.067 | 0.008 |  |
| O=C(Nc1ccc(C(=O)N2CCC3(C=CCCC3)Cc3ccccc32)cc1)c1ccccc1F (centres unmarked) [Compound 101, 4-(2-Fluorobenzoyl-4-aminobenzoyl)-4-aza-[6,5]-spiro-[5,6]-benzododec-2′-ene] | 0.06 | 0.55 | 0.01 |  |
| O=C(Nc1ccc(C(=O)N2CCC3(C=CCCC3)Cc3ccccc32)c(Cl)c1)c1ccccc1F (centres unmarked) [Compound 110] | 2.57 | 1 | 0.9 |  |
| (R)-4-(2-fluorophenylbenzoyl-4-aminobenzoyl)-3′-(2-(N,N-dimethylaminoethylaminocarbonyl))-4-aza-[6,4]-spiro-[5,6]-benzoundec-2′-ene [Compound 23] |  |  |  | IC50 (V1b): 13.7 µM; Receptor Binding V2 (% Inh. @ concentration in μM) (human V2 receptor; @ 0.1 μM): 1% @ 0.1; Receptor Binding V1a (% Inh. @ concentration in μM) (V1a [2]; @ 0.1 μM): 15% @ 0.1 |
| (S)-4-(2-fluorophenylbenzoyl-4-aminobenzoyl)-3′-(2-(N,N-dimethylaminoethylaminocarbonyl))-4-aza-[6,4]-spiro-[5,6]-benzoundec-2′-ene [Compound 22] |  |  | 0.003 | Receptor Binding V1b (% Inh. @ concentration in μM) (V1b; @ 10 μM): 17% @ 10; Receptor Binding V2 (% Inh. @ concentration in μM) (human V2 receptor; @ 0.1 μM): 15% @ 0.1 |
